According to patent US20250073358A1, “AROMATIC VINYL COMPOUND, METAL COMPLEX THEREOF, AND PREPARATION METHOD THEREFOR AND USE THEREOF” (SHANGHAI MAXINOVEL PHARMACEUTICALS CO., LTD., priority 2021, published 2025):

Key:
[1] = target: PD-1/PD-L1 (Homo sapiens (Human), UniProt Q9NZQ7); experiment: Homogenouse Time-Resolved Fluorescence (HTRF) binding assay, PD-1/PD-L1
Protocol: Homogenouse Time-Resolved Fluorescence (HTRF) binding assay was used to detect the binding ability of the compound of the present disclosure to PD-1/PD-L1.
The purchased kit (CisBio, #64CUS000C-1) contains reagents required for experiments such as PD-1, PD-L1, anti-tag1-Eu, Anti-tag2-XL665, Dilute Buffer, and Detection Buffer.
• 1. The compound was configured with 100% DMSO into 10 concentrations with a concentration gradient of 3 times. • 2. The DMSO solution of the compound was added to Dilute Buffer solution, and the mixture was mixed well and transferred to a 96-well plate. • 3. PD-L1 was diluted with Dilute Buffer solution and then added to the above 96-well plate. • 4. PD-1 was diluted with Dilute Buffer solution and then added to the above 96-well plate, and incubated at room temperature for 30 minutes. • 5. One part of anti-tag1-Eu and one part of Anti-tag2-XL665 were added to Detection Buffer solution, and the mixture was mixed well and transferred to the above 96-well plate. • 6. The mixture in the 96-well plate was incubated at room temperature for 1 to 24 hours. • 7. The HTRF values were read with Envision.

[2] = test system: MC38-PDL1 tumor (MC-38-hPD-L1 cells); experiment: Tumor targeting study in Micro-PET/CT scanning, bilateral tumor model (Effect Embodiment 4), left tumor; assay type: in vivo, C57BL/6J mice; settings: Micro-PET/CT imaging, bilateral tumor mice
Protocol: • Tumor targeting study of compound 80 in Micro-PET/CT scanning • Experimental animal information: C57BL/6J mice, SPF grade; 15-21 g; • Construction of Bilateral Tumor Model Mice: • Cell Culture
(§1) Human-derived PD-L1 gene knock-in MC-38 cells (MC-38-hPD-L1 cells) were adherently cultured in vitro, and the culture conditions were DMEM medium plus 10% heat-inactivated fetal bovine serum and hygromycinB (final concentration was […]), and the cells were cultured at 37° C. with 5% CO2. Subculture of 2-3 times a week. When the cells were in the exponential growth phase, the cells were harvested, counted, and the left side of the mice was inoculated subcutaneously.
(§2) Mouse-derived MC-38 cells were adherently cultured in vitro, and the culture conditions were DMEM medium plus 10% heat-inactivated fetal bovine serum, and the cells were cultured at 37° C. with 5% CO2. Subculture of 2-3 times a week. When the cells were in the exponential growth phase, the cells were collected, counted, and the right side of the mice was inoculated subcutaneously.
(§3) 100 μL of 1×10^6 MC-38-hPD-L1 cell suspension was inoculated subcutaneously on the left dorsal side of C57BL/6J mice. The same mice were subcutaneously inoculated with 100 μL of 1×10^6 MC-38 cell suspension on the right dorsal side on the second day. After inoculation, the mice were fed normally, and after a certain number of days, tumor-bearing mice with the volume of bilateral transplanted tumor in the range of 150 mm^3−350 mm^3 were selected for test.
(§4) After quality control, compound 80 was diluted with 10% ethanol in physiological saline, and the drug was extracted and injected into each animal through tail vein. The administration volume was 100 μL/animal, and the administration dose was 100-200 μCi/animal. The study of Micro-PET/CT imaging was performed at 0.5 h, 1.5 h, 2.5 h, 3.5 h after injection of compound 80.

[3] = test system: tumor; experiment: Inhibitory effect on tumor in tumor-bearing mice; assay type: in vivo, C57/BL6 mice; settings: tail vein injection, 45 MBq per mouse, compared with the control group (PBS)
Description: • 1. Inhibitory effect of compound 78 on tumor • 1.1 Experimental animal information: tumor-bearing C57/BL6 mice; SPF grade; weight range: 17-20 g; Shanghai Qi'up Biomedical Technology Co., Ltd. • 1.2 Experimental process
Ten tumor-bearing mice with tumor volumes of 10-100 mm^3 were systematically and randomly divided into 2 groups according to tumor size, with 5 mice in each group, corresponding to PBS and compound 78 respectively. After anesthesia with isoflurane, tumor-bearing mice were injected into the tail vein with compound 78 with 45 MBq (approximately 1.2 mCi) per mouse and a volume of 0.2 mL. After administration, the tumor size and weight of the animals were measured periodically, and the tumor growth curve was drawn to understand the inhibitory effect of the drug on tumor.

[4] = test system: MC38-PDL1 tumor (MC-38-hPD-L1 cells); experiment: Tumor targeting study in Micro-PET/CT scanning, bilateral tumor model (Effect Embodiment 3), left tumor; assay type: in vivo, C57BL/6J mice; settings: Micro-PET/CT imaging, bilateral tumor mice
Description: Tumor targeting study of compound 79 in Micro-PET/CT scanning 1. Experimental animal information: C57BL/6J mice, SPF grade; 15-21 g; model mouse construction: bilateral tumor • Construction of bilateral tumor model mice • Cell culture
as §1, §2, §3
as §4, with “79” for “80”, “79.” for “80.”

Sequence of PD-1/PD-L1 (Q9NZQ7 19-238): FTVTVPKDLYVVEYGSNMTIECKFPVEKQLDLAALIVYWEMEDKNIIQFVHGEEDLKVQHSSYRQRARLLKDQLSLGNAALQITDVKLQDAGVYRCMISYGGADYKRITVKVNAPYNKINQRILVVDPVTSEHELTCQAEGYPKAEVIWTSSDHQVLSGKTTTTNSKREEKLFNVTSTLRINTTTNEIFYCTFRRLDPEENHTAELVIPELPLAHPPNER

| Compound | IC50 [1] [nM] | uptake value of left tumor (MC38-PDL1) compared with right tumor (MC38) [2] | inhibition of tumor growth [3] | uptake value of left tumor (MC38-PDL1) compared with right tumor (MC38) [4] |
| --- | --- | --- | --- | --- |
| Cc1c(/C=C/c2cc(OCCOCCN3CCN(CC(=O)O)CCN(CC(=O)O)CCN(CC(=O)O)CC3)c(CN3CCCC[C@H]3C(=O)O)cc2C(F)(F)F)cccc1-c1ccccc1 [Compound 7] | 0.969 | significantly higher | – | – |
| Cc1c(/C=C/c2cc(OCCCCNC(=O)CN3CCN(CC(=O)O)CCN(CC(=O)O)CCN(CC(=O)O)CC3)c(CN3CCCC[C@H]3C(=O)O)cc2C(F)(F)F)cccc1-c1ccccc1 [Compound 8] | 0.522 | significantly higher | – | – |
| Cc1ccc(CCCC(=O)NCCCC[C@H](NC(=O)CN2CCN(CC(=O)O)CCN(CC(=O)O)CCN(CC(=O)O)CC2)C(=O)NCCCCCCOc2cc(/C=C/c3cccc(-c4ccccc4)c3C)c(C(F)(F)F)cc2CN2CCCC[C@H]2C(=O)O)cc1 [Compound 27] | 13.6 | significantly higher | – | – |
| Cc1c(/C=C/c2cc(OCCCCCCNC(=O)CN3CCN(CC(=O)[O-])CCN(CC(=O)[O-])CCN(CC(=O)[O-])CC3)c(CN3CCCC[C@H]3C(=O)O)cc2C(F)(F)F)cccc1-c1ccccc1.[Ga+3] [Compound 28] | 0.562 | significantly higher | – | – |
| Cc1c(/C=C/c2cc(OCCNC(=O)C3CCC(CNC(=O)CN4CCN(CC(=O)O)CCN(CC(=O)O)CCN(CC(=O)O)CC4)CC3)c(CN3CCCC[C@H]3C(=O)O)cc2C(F)(F)F)cccc1-c1ccccc1 (stereo partly shown) [Compound 35] | 0.766 | significantly higher | – | – |
| Cc1c(/C=C/c2cc(OCCNC(=O)C3CCN(C(=O)CN4CCN(CC(=O)O)CCN(CC(=O)O)CCN(CC(=O)O)CC4)CC3)c(CN3CCCC[C@H]3C(=O)O)cc2C(F)(F)F)cccc1-c1ccccc1 [Compound 36] | 0.521 | significantly higher | – | – |
| Cc1c(/C=C/c2cc(OCC3CCN(C(=O)CN4CCN(CC(=O)O)CCN(CC(=O)O)CCN(CC(=O)O)CC4)CC3)c(CN3CCCC[C@H]3C(=O)O)cc2C(F)(F)F)cccc1-c1ccccc1 [Compound 37] | 0.729 | significantly higher | – | – |
| Cc1c(/C=C/c2cc(OCCNC(=O)C3CCN(C(=O)CN4CCN(CC(=O)O)CCN(CC(=O)O)CCN(CC(=O)O)CC4)CC3)c(CN3CCCC[C@H]3C(=O)O)cc2C(F)(F)F)cccc1-c1ccccc1 [Compound 38] | 1.13 | – | very good therapeutic effects on inhibiting tumor growth | – |
| N#Cc1c(-c2ccccc2)ccnc1/C=C/c1cc(OCCCCCN2CCN(CC(=O)[O-])CCN(CC(=O)[O-])CC2)c(CN2CCCC[C@H]2C(=O)O)cc1C(F)(F)F.[Al+3].[F-] [Compound 58] | – | – | – | significantly higher |
| N#Cc1c(-c2ccccc2)ccnc1/C=C/c1cc(OCC2CCN(C(=O)CN3CCN(CC(=O)[O-])CCN(CC(=O)[O-])CC3)CC2)c(CN2CCCC[C@H]2C(=O)O)cc1C(F)(F)F.[Al+3].[F-] [Compound 60] | – | – | – | significantly higher |
| Cc1c(/C=C/c2cc(OCCCCNC(=O)CN3CCN(CC(=O)[O-])CCN(CC(=O)[O-])CC3)c(CN3CCCC[C@H]3C(=O)O)cc2C(F)(F)F)cccc1-c1ccccc1.[Al+3].[F-] [Compound 62] | 0.529 | – | – | significantly higher |
| Cc1c(/C=C/c2cc(OCCCNC(=O)CN3CCN(CC(=O)O)CCN(CC(=O)O)CC3)c(CN3CCCC[C@H]3C(=O)O)cc2C(F)(F)F)cccc1-c1ccccc1 [Compound 64] | 0.7 | – | – | significantly higher |
| Cc1c(/C=C/c2cc(OCCOCCN3CCN(CC(=O)O)CCN(CC(=O)O)CCN(CC(=O)O)CC3)c(CN3CCCC[C@@H]3C(=O)O)cc2C(F)(F)F)cccc1-c1ccccc1 [Compound 70] | 47.7 | – | very good therapeutic effects on inhibiting tumor growth | – |
| Cc1cc(CN2CCCC[C@H]2C(=O)O)c(OCCCCCN2CCN(CC(=O)O)CCN(CC(=O)O)CCN(CC(=O)O)CC2)cc1/C=C/c1cccc(-c2ccccc2)c1C [Compound 72] | 112 | – | very good therapeutic effects on inhibiting tumor growth | – |
| Cc1c(/C=C/c2cc(OCCOCCN3CCN(CC(=O)[O-])CCN(CC(=O)[O-])CCN(CC(=O)[O-])CC3)c(CN3CCCC[C@H]3C(=O)O)cc2C(F)(F)F)cccc1-c1ccccc1.[68Ga+3] [Compound 75] | – | significantly higher | – | – |
| COc1cc(C(=O)Nc2cccc(-c3cccc(/C=C/c4cc(OCCOCCN5CCN6CCN(CC5)CC(=O)[O][Al]([F])[O]C(=O)C6)c(CN5CCCC[C@H]5C(=O)O)cc4C(F)(F)F)c3C)c2C)ncc1CN1CCCC[C@H]1C(=O)O [Compound 82] | – | – | – | significantly higher |
